target: His-tagged p53-Y220C DNA binding domain (Homo sapiens, UniProt P04637, Y220C); experiment: Biochemical p53-Y220C and DNA binding assay (HTRF); details: inflection point of 10 points dose titration, 4 parameter curve fit; p53-Y220C DBD 100 nM, biotinylated dsDNA 200 nM, 27 to 29° C.; read-out: HTRF IP
Description: Biological Example 1. Biochemical p53-Y220C and DNA Binding Assay
The compounds of this invention can bind to p53-Y220C and increase the ability of the mutant p53 to bind to DNA at higher temperatures. His-tagged p53-Y220C DNA binding domain containing amino acid 94-312 is used to measure DNA binding activities in vitro with the sequence described below. (SEQ ID NO: 1: […]. Biotin labeled double strand DNA (dsDNA) containing consensus p53 binding sequence (SEQ ID NO: 2: Forward: 5′-(biotin)-[…]-3′; Reverse: 5′-(biotin)-[…]-3′) is used to measure protein-DNA binding activities. Compounds, His-tagged p53-Y220C DBD proteins (100 nM), and biotinylated dsDNA (200 nM) were mixed in ice-cold assay buffer containing DPBS, 20 mM NaCl, and 0.5% BAS, and incubated at 4° C. overnight in 384-well plate. Plates were transferred to incubator at 27 to 29° C. with constant shaking for 60 minutes. Equal volume of Homogeneous Time-Resolved Fluorescence (HTRF) dyes containing mAb anti-6HIS Tb cryptate gold and d2 labeled streptavidin in the assay buffer was added to each well and incubated at 27 to 29° C. with constant shaking for 60 minutes. The plate was read using Envision multimode plate reader. Reference compound 1 was used as high control and DMSO was used as low control. The percentage activation (A %) of protein-DNA binding by compounds was normalized by setting up high control (reference compound) as […] and low control (DMSO) as 0% (A %=(HTRF ratio of compound-HTRF ratio of low control)/(HTRF ratio of high control-HTRF ratio of low control)*500). 10 points dose titration curves for each compound were analyzed by 4 parameter curve fit and inflection point (IP) was reported. Reference compound 1 is shown below Table 1. Compounds of the invention are active in the HTRF assay. Data in Table 1 collected using Biological Example 1.

Row | Structure (SMILES) | EC50 [nM]
1 | CS(=O)(=O)N1CC(O)C(O/N=C/c2sc3c(N[C@@H]4CNC[C@@H]4F)cccc3c2CC(F)(F)F)C1 (stereo partly drawn) [Example 1-38, (E)-7-(((3R,4S)-4-fluoropyrrolidin-3-yl)amino)-3-(2,2,2-trifluoroethyl)benzo[b]thiophene-2-carbaldehyde O-(4-hydroxy-1-(methylsulfonyl)pyrrolidin-3-yl) oxime] | 100 to 1000
2 | OCC1(O/N=C/c2sc3c(N[C@@H]4CNC[C@@H]4F)cccc3c2CC(F)(F)F)CCOCC1 [Example 1-21, (E)-7-(((3R,4S)-4-fluoropyrrolidin-3-yl)amino)-3-(2,2,2-trifluoroethyl)benzo[b]thiophene-2-carbaldehyde O-(4-(hydroxymethyl)tetrahydro-2H-pyran-4-yl) oxime] | > 1000
3 | CC(O)(CO/N=C/c1sc2c(N[C@@H]3CNC[C@@H]3F)cccc2c1CC(F)(F)F)c1ccccc1 (stereo in doubt) [Example 1-24, (E)-7-(((3R,4S)-4-fluoropyrrolidin-3-yl)amino)-3-(2,2,2-trifluoroethyl)benzo[b]thiophene-2-carbaldehyde O-(2-hydroxy-2-phenylpropyl) oxime] | 100 to 1000
4 | OC1(CO/N=C/c2sc3c(N[C@@H]4CNC[C@@H]4F)cccc3c2CC(F)(F)F)CCCCC1 [Example 1-29, (E)-7-(((3R,4S)-4-fluoropyrrolidin-3-yl)amino)-3-(2,2,2-trifluoroethyl)benzo[b]thiophene-2-carbaldehyde O-((1-hydroxycyclohexyl)methyl) oxime] | > 1000
5 | CC[C@@H](CO)O/N=C/c1sc2c(N[C@@H]3CNC[C@@H]3F)cccc2c1CC(F)(F)F [Example 1-2, (E)-7-(((3R,4S)-4-fluoropyrrolidin-3-yl)amino)-3-(2,2,2-trifluoroethyl)benzo[b]thiophene-2-carbaldehyde O-((S)-1-hydroxybutan-2-yl) oxime] | > 1000
6 | OC1CCCCC1O/N=C/c1sc2c(N[C@@H]3CNC[C@@H]3F)cccc2c1CC(F)(F)F (stereo partly drawn) [Example 1-35, (E)-7-(((3R,4S)-4-fluoropyrrolidin-3-yl)amino)-3-(2,2,2-trifluoroethyl)benzo[b]thiophene-2-carbaldehyde O-(2-hydroxycyclohexyl) oxime] | 100 to 1000
7 | OC1(CO/N=C/c2sc3c(N[C@@H]4CNC[C@@H]4F)cccc3c2CC(F)(F)F)CCCOC1 (stereo partly drawn) [Example 1-15, (E)-7-(((3R,4S)-4-fluoropyrrolidin-3-yl)amino)-3-(2,2,2-trifluoroethyl)benzo[b]thiophene-2-carbaldehyde O-((3-hydroxytetrahydro-2H-pyran-3-yl)methyl) oxime] | 100 to 1000
8 | OCC1(O/N=C/c2sc3c(N[C@@H]4CNC[C@@H]4F)cccc3c2CC(F)(F)F)CCNC1 (stereo partly drawn) [Example 1-13, (E)-7-(((3R,4S)-4-fluoropyrrolidin-3-yl)amino)-3-(2,2,2-trifluoroethyl)benzo[b]thiophene-2-carbaldehyde O-(3-(hydroxymethyl)pyrrolidin-3-yl) oxime] | > 1000
9 | O=C(OCc1ccccc1)N1CCC(O)(CO/N=C/c2sc3c(N[C@@H]4CNC[C@@H]4F)cccc3c2CC(F)(F)F)CC1 [Example 1-25, benzyl 4-(((((E)-(7-(((3R,4S)-4-fluoropyrrolidin-3-yl)amino)-3-(2,2,2-trifluoroethyl)benzo[b]thiophen-2-yl)methylene)amino)oxy)methyl)-4-hydroxypiperidine-1-carboxylate] | > 1000

More lines, now with the values ahead:

Row | EC50 [nM] | Structure (SMILES)
10 | 100 to 1000 | COc1cccc(CO/N=C\c2sc3c(N[C@@H]4CCN(C)C[C@@H]4F)cccc3c2CC(F)(F)F)n1 [Example 2-28, (Z)-7-(((3S,4R)-3-fluoro-1-methylpiperidin-4-yl)amino)-3-(2,2,2-trifluoroethyl)benzo[b]thiophene-2-carbaldehyde O-((6-methoxypyridin-2-yl)methyl) oxime]
11 | 100 to 1000 | F[C@H]1CNC[C@H]1Nc1cccc2c(CC(F)(F)F)c(/C=N/OC3CCCC3)sc12 [Example 2-17, (E)-7-(((3R,4S)-4-fluoropyrrolidin-3-yl)amino)-3-(2,2,2-trifluoroethyl)benzo[b]thiophene-2-carbaldehyde O-cyclopentyl oxime]
12 | < 100 | CC(C)N1C[C@H](F)[C@H](Nc2cccc3c(CC(F)(F)F)c(/C=N/OCC(C)(C)O)sc23)C1 [Example 2-22, (E)-7-(((3R,4S)-4-fluoro-1-isopropylpyrrolidin-3-yl)amino)-3-(2,2,2-trifluoroethyl)benzo[b]thiophene-2-carbaldehyde O-(2-hydroxy-2-methylpropyl) oxime]
13 | 100 to 1000 | CN1CC[C@@H](Nc2cccc3c(CC(F)(F)F)c(/C=N/OCc4cccc(=O)n4C)sc23)[C@@H](F)C1 [Example 2-29, (E)-7-(((3S,4R)-3-fluoro-1-methylpiperidin-4-yl)amino)-3-(2,2,2-trifluoroethyl)benzo[b]thiophene-2-carbaldehyde O-((1-methyl-6-oxo-1,6-dihydropyridin-2-yl)methyl) oxime]
14 | < 100 | CNC(=O)c1ccc(CO/N=C/c2sc3c(N[C@@H]4CCN(C)C[C@@H]4F)cccc3c2SC(F)(F)F)c(NC)c1 [Example 2-33, 4-(((((E)-(7-(((3S,4R)-3-fluoro-1-methylpiperidin-4-yl)amino)-3-((trifluoromethyl)thio)benzo[b]thiophen-2-yl)methylene)amino)oxy)methyl)-N-methyl-3-(methylamino)benzamide]
15 | > 1000 | CS(=O)(=O)NC1CCC(=Cc2sc3c(N[C@@H]4CCNC[C@@H]4F)cccc3c2CC(F)(F)F)CC1 (stereo partly drawn) [Example 4-1, N-(4-((7-(((3S,4R)-3-fluoropiperidin-4-yl)amino)-3-(2,2,2-trifluoroethyl)benzo[b]thiophen-2-yl)methylene)cyclohexyl)methanesulfonamide]
16 | 100 to 1000 | CN1CC[C@@H](Nc2cccc3c(CC(F)(F)F)c(/C=C/CNS(C)(=O)=O)sc23)[C@@H](F)C1 [Example 6-3, N-((E)-3-(7-(((3S,4R)-3-fluoro-1-methylpiperidin-4-yl)amino)-3-(2,2,2-trifluoroethyl)benzo[b]thiophen-2-yl)allyl)methanesulfonamide]
17 | > 1000 | CN1CC[C@@H](Nc2cccc3c2cc(/C=N/Oc2ccccc2)n3CC(F)(F)F)[C@@H](F)C1 [Example 2-6, (E)-4-(((3S,4R)-3-fluoro-1-methylpiperidin-4-yl)amino)-1-(2,2,2-trifluoroethyl)-1H-indole-2-carbaldehyde O-phenyl oxime]
18 | 100 to 1000 | CN1CC[C@@H](Nc2cccc3c(CC(F)(F)F)c(/C=C/CNC(=O)C4CC4)sc23)[C@@H](F)C1 [Example 6-1, N-((E)-3-(7-(((3S,4R)-3-fluoro-1-methylpiperidin-4-yl)amino)-3-(2,2,2-trifluoroethyl)benzo[b]thiophen-2-yl)allyl)cyclopropanecarboxamide]
19 | 100 to 1000 | O=C1NCC(CO/N=C/c2sc3c(N[C@@H]4CNC[C@@H]4F)cccc3c2CC(F)(F)F)O1 (stereo partly drawn) [Example 2-23, (E)-7-(((3R,4S)-4-fluoropyrrolidin-3-yl)amino)-3-(2,2,2-trifluoroethyl)benzo[b]thiophene-2-carbaldehyde O-((2-oxooxazolidin-5-yl)methyl) oxime]
20 | 100 to 1000 | CN1CC[C@@H](Nc2cccc3c2cc(/C=N/OCC(=O)Nc2ccccc2)n3CC(F)(F)F)[C@@H](F)C1 [Example 2-8, 2-((((E)-(4-(((3S,4R)-3-fluoro-1-methylpiperidin-4-yl)amino)-1-(2,2,2-trifluoroethyl)-1H-indol-2-yl)methylene)amino)oxy)-N-phenylacetamide]
21 | > 1000 | CNC(=O)CO/N=C/c1cc2c(N[C@@H]3CCN(C)C[C@@H]3F)cccc2n1CC(F)(F)F [Example 2-7, 2-((((E)-(4-(((3S,4R)-3-fluoro-1-methylpiperidin-4-yl)amino)-1-(2,2,2-trifluoroethyl)-1H-indol-2-yl)methylene)amino)oxy)-N-methylacetamide]
22 | > 1000 | CN1CC[C@@H](Nc2cccc3c2cc(/C=N\Oc2ccccc2)n3CC(F)(F)F)[C@@H](F)C1 [Example 2-5, (Z)-4-(((3S,4R)-3-fluoro-1-methylpiperidin-4-yl)amino)-1-(2,2,2-trifluoroethyl)-1H-indole-2-carbaldehyde O-phenyl oxime]
23 | 100 to 1000 | CN1CC[C@@H](Nc2cccc3c(CC(F)(F)F)c(/C=C/C(O)c4cnn(CC5CC5)c4)sc23)[C@@H](F)C1 (stereo partly drawn) [Example 5-7, (E)-1-(1-(cyclopropylmethyl)-1H-pyrazol-4-yl)-3-(7-(((3S,4R)-3-fluoro-1-methylpiperidin-4-yl)amino)-3-(2,2,2-trifluoroethyl)benzo[b]thiophen-2-yl)prop-2-en-1-ol]
24 | 100 to 1000 | O=c1cccc(C(O)/C=C/c2sc3c(N[C@@H]4CNC[C@@H]4F)cccc3c2CC(F)(F)F)[nH]1 (stereo partly drawn) [Example 5-10, 6-((E)-3-(7-(((3R,4S)-4-fluoropyrrolidin-3-yl)amino)-3-(2,2,2-trifluoroethyl)benzo[b]thiophen-2-yl)-1-hydroxyallyl)pyridin-2(1H)-one]
